Measured values: patent US20240150321A1, “PYRAZOLYLSULFONAMIDE COMPOUNDS AND THEIR USE IN THERAPY” (HOTSPOT THERAPEUTICS, INC., priority 2022, published 2024)
Where two headings read alike, the source gives them in different places.

Legend:
[1] = test system: NF-kB reporter in Jurkat cells; experiment: NF-kB reporter assay in Jurkat cells stimulated with aCD3/aCD28/PMA; type: cell-based; settings: Jurkat cells, 1 hr compound pre-incubation, aCD3/aCD28/PMA stimulation 4 hr, One-Glo readout, read-out: NF-kB Reporter Assay IC50
Outline: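 Luminescence (One-Glo) from the NF-kB reporter yielded IC50 values. Stimulation lasted 4 h at 37° C with aCD3, aCD28 and PMA (final 5, 5 and 0.03 […]), after 1 h compound pre-exposure of 25,000 Jurkat cells per well in serum-free RPMI.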

Avi-tagged FL MALT-1 = Avi-tagged FL MALT-1 (Homo sapiens (Human), UniProt Q9UDY8); experiment: MALT-1 Fluorogenic Peptide Cleavage Assay (MALT1 inhibition assay); type: biochemical; settings: Ac-LRSR-AMC peptide substrate, 30 min pre-incubation, 90 min reaction at room temperature
Outline: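 Cleavage of Ac-LRSR-AMC, read as fluorescence at 342/441 nm after 90 min at room temperature, with substrate working stocks of 50 μM (Km) or 280 μM (10×Km). Enzyme, Avi-tagged full-length MALT-1 (40 nM stock), was first pre-incubated 30 min with compound in citrate/HEPES pH 6.89 buffer with TCEP, EDTA, CHAPS and 2% DMSO; IC50 fitted from normalised % inhibition.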

Chain of Avi-tagged FL MALT-1 (Q9UDY8 whole entry): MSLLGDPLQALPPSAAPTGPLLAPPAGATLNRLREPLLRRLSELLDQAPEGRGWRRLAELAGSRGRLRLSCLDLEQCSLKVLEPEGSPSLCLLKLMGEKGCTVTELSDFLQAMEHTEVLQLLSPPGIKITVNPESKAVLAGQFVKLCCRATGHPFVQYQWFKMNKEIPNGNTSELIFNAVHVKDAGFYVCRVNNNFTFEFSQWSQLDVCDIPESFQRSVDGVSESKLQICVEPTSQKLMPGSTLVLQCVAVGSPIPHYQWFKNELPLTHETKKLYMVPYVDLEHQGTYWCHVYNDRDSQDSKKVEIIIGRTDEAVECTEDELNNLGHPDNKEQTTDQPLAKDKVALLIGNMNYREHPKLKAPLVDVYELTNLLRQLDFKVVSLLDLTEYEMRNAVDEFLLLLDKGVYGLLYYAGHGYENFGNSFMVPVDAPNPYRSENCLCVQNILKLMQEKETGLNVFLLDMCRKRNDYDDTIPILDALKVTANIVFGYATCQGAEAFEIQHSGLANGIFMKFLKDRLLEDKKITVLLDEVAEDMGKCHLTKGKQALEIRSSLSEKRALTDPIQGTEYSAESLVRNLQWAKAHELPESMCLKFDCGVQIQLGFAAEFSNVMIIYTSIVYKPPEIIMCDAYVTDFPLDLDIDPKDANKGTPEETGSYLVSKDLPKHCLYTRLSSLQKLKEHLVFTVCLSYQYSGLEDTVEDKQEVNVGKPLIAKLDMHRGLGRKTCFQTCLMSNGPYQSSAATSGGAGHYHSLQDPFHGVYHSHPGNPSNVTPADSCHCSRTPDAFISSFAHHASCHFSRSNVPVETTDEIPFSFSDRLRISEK

IC50 ([1]; Homo sapiens) [nM]	IC50 (Avi-tagged FL MALT-1) [nM]	IC50 [1] [nM]	SMILES
< 400	> 2500	–	C[C@@H]1CN(c2ccnc(-n3cc(S(=O)(=O)Nc4cccc5cnn(C)c45)cn3)c2)C(=O)O1 [Compound I-320]
< 400	≤ 400	–	COc1ncc2cnn(C)c2c1NS(=O)(=O)c1cnn(-c2cc(C(C)OC)ccn2)c1 (single isomer, unassigned) [Compound I-272, N-(6-methoxy-1-methyl-1H-pyrazolo[4,3-c]pyridin-7-yl)-1-(4-(1-methoxyethyl)pyridin-2-yl)-1H-pyrazole-4-sulfonamide]
< 400	> 2500	–	COc1ncc2cnn(C)c2c1NS(=O)(=O)c1cnn(-c2cc(N3CC(C)(C)C3)ccn2)c1 [Compound I-385]
< 400	≤ 400	–	COc1ccc2cnn(C)c2c1NS(=O)(=O)c1cnn(-c2ccnc(C(F)(F)F)c2)c1 [Compound I-4, N-(6-Methoxy-1-Methyl-1H-Indazol-7-yl)-1-(2-(Trifluoromethyl)Pyridin-4-yl)-1H-Pyrazole-4-Sulfonamide]
< 400	> 2500	–	COC[C@@](C)(OC)c1ccnc(-n2cc(S(=O)(=O)Nc3cccc4cnn(C)c34)cn2)c1 [Compound I-301]
< 400	400 to 1000	–	COc1ccc2cnn(C)c2c1NS(=O)(=O)c1cnn(-c2cc(C(C)(C)O)ccn2)c1 [Compound I-135, 1-(4-(2-hydroxypropan-2-yl)pyridin-2-yl)-N-(6-methoxy-1-methyl-1H-indazol-7-yl)-1H-pyrazole-4-sulfonamide]
< 400	≤ 400	–	[2H]c1nn(C([2H])([2H])[2H])c2c(NS(=O)(=O)c3cnn(-c4cc(C(F)(F)F)ccn4)c3)cccc12 [Compound I-353, N-(1-(methyl-d3)-1H-indazol-7-yl-3-d)-1-(4-(trifluoromethyl)pyridin-2-yl)-1H-pyrazole-4-sulfonamide]
< 400	> 2500	–	Cn1ncc2cccc(NS(=O)(=O)c3cnn(-c4cc(C5CC(O)C5)ccn4)c3)c21 (stereo not drawn) [Compound I-374, 1-(4-(3-hydroxycyclobutyl)pyridin-2-yl)-N-(1-methyl-1H-indazol-7-yl)-1H-pyrazole-4-sulfonamide]
< 400	> 2500	–	COC[C@](C)(O)c1ccnc(-n2cc(S(=O)(=O)Nc3cccc4cnn(C)c34)cn2)c1 [Compound I-267]
< 400	> 2500	–	Cn1ncc2cccc(NS(=O)(=O)c3cnn(-c4cc(N5CC[C@@H](F)C5)ccn4)c3)c21 [Compound I-430, 1-{4-[(3R)-3-fluoropyrrolidin-1-yl]pyridin-2-yl}-N-(1-methylindazol-7-yl)pyrazole-4-sulfonamide]
1000 to 2500	≤ 400	–	Cn1ncc2ccc(OC3CC3)c(NS(=O)(=O)c3cnn(-c4ccnc(C(F)(F)F)c4)c3)c21 [Compound I-55, N-(6-Cyclopropoxy-1-Methyl-1H-Indazol-7-yl)-1-(2-(Trifluoromethyl)Pyridin-4-yl)-1H-Pyrazole-4-Sulfonamide]
400 to 1000	≤ 400	–	CCc1ccc2c(c(C)nn2C)c1NS(=O)(=O)c1cnn(-c2ccnc(C(F)(F)F)c2)c1 [Compound I-40, N-(5-ethyl-1,3-dimethyl-1H-Indazol-4-yl)-1-(2-(Trifluoromethyl)Pyridin-4-yl)-1H-Pyrazole-4-Sulfonamide]
< 400	> 2500	–	Cc1n[nH]c2cccc(NS(=O)(=O)c3cnn(-c4cc(C5(O)CCC5)ccn4)c3)c12 [Compound I-255, 1-[4-(1-hydroxycyclobutyl)pyridin-2-yl]-N-(3-methyl-1H-indazol-4-yl)pyrazole-4-sulfonamide]
< 400	≤ 400	–	[2H]C([2H])([2H])Oc1ccc2cnn(C)c2c1NS(=O)(=O)c1cnn(-c2cc(C3CC3)ccn2)c1 [Compound I-96, 1-(4-cyclopropylpyridin-2-yl)-N-(6-(methoxy-d3)-1-methyl-1H-indazol-7-yl)-1H-pyrazole-4-sulfonamide]
< 400	≤ 400	–	COc1ncc2cnn(C)c2c1NS(=O)(=O)c1cnn(-c2ccnc(C(F)(F)F)c2)c1 [Compound I-87, N-(6-Methoxy-1-Methyl-1H-Pyrazolo[4,3-C]Pyridin-7-yl)-1-(2-(Trifluoromethyl)Pyridin-4-yl)-1H-Pyrazole-4-Sulfonamide]
< 400	> 2500	–	Cc1n[nH]c2cccc(NS(=O)(=O)c3cnn(-c4cc(C5(F)COC5)ccn4)c3)c12 [Compound I-240, 1-[4-(3-fluorooxetan-3-yl)pyridin-2-yl]-N-(3-methyl-1H-indazol-4-yl)pyrazole-4-sulfonamide]
< 400	≤ 400	–	COc1ccc2[nH]nc(C)c2c1N(C)S(=O)(=O)c1cnn(-c2cc(C(F)(F)F)ccn2)c1 [Compound I-82, N-(5-Methoxy-3-Methyl-1H-Indazol-4-yl)-N-Methyl-1-(4-(Trifluoromethyl)Pyridin-2-yl)-1H-Pyrazole-4-Sulfonamide]
< 400	> 2500	–	COc1ncc2cnn(C)c2c1NS(=O)(=O)c1cnn(-c2cc(N3CC4(CC4)C3)ccn2)c1 [Compound I-386, 1-(4-(5-azaspiro[2.3]hexan-5-yl)pyridin-2-yl)-N-(6-methoxy-1-methyl-1H-pyrazolo[4,3-c]pyridin-7-yl)-1H-pyrazole-4-sulfonamide]

More lines, now with the values behind:

SMILES	IC50 ([1]; Homo sapiens) [nM]	IC50 (Avi-tagged FL MALT-1) [nM]	IC50 [1] [nM]
Cn1ncc2ccc(F)c(NS(=O)(=O)c3cnn(-c4cc(C(F)(F)F)ccn4)c3)c21 [Compound I-136, N-(6-fluoro-1-methyl-1H-indazol-7-yl)-1-(4-(trifluoromethyl)pyridin-2-yl)-1H-pyrazole-4-sulfonamide]	400 to 1000	400 to 1000	–
Cn1nc2c(NS(=O)(=O)c3cnn(-c4cc(C(F)(F)F)ccn4)c3)cccc2c1Cl [Compound I-105, N-(3-chloro-2-methyl-2H-indazol-7-yl)-1-(4-(trifluoromethyl)pyridin-2-yl)-1H-pyrazole-4-sulfonamide]	1000 to 2500	> 2500	–
CCc1ccc2cnn(C)c2c1NS(=O)(=O)c1cnn(-c2cc(OC)ccn2)c1 [Compound I-44, N-(6-Ethyl-1-Methyl-1H-Indazol-7-yl)-1-(4-Methoxypyridin-2-yl)-1H-Pyrazole-4-Sulfonamide]	> 2500	> 2500	–
Cn1ncc2cccc(NS(=O)(=O)c3cnn(-c4cc(N5CC[C@H](F)C5)ccn4)c3)c21 [Compound I-429, 1-{4-[(3S)-3-fluoropyrrolidin-1-yl]pyridin-2-yl}-N-(1-methylindazol-7-yl) pyrazole-4-sulfonamide]	< 400	> 2500	–
C[C@@H](O)c1ccnc(-n2cc(S(=O)(=O)Nc3cccc4cnn(C)c34)cn2)c1 [Compound I-269]	< 400	> 2500	–
Cn1ncc2cccc(NS(=O)(=O)c3cnn(-c4cc(N5CCCCC5)ccn4)c3)c21 [Compound I-250, N-(1-methyl-1H-indazol-7-yl)-1-(4-(piperidin-1-yl)pyridin-2-yl)-1H-pyrazole-4-sulfonamide]	< 400	> 2500	–
Cn1ncc2cccc(NS(=O)(=O)c3cnn(-c4cc(N5CCOCC5)ccn4)c3)c21 [Compound I-103, N-(1-methyl-1H-indazol-7-yl)-1-(4-morpholinopyridin-2-yl)-1H-pyrazole-4-sulfonamide]	< 400	> 2500	–
COc1ccc2cnn(C)c2c1NS(=O)(=O)c1cnn(-c2cc(CO)ccn2)c1 [Compound I-323, 1-[4-(hydroxymethyl)pyridin-2-yl]-N-(6-methoxy-1-methylindazol-7-yl)pyrazole-4-sulfonamide]	< 400	400 to 1000	–
CC(=O)N1CC(O)(c2ccnc(-n3cc(S(=O)(=O)Nc4cccc5cnn(C)c45)cn3)c2)C1 [Compound I-287]	> 2500	> 2500	–
CCOc1ccc2cnn(C)c2c1NS(=O)(=O)c1cnn(-c2ccnc(C(F)(F)F)c2)c1 [Compound I-9, N-(6-Ethoxy-1-Methyl-1H-Indazol-7-yl)-1-(2-(Trifluoromethyl)Pyridin-4-yl)-1H-Pyrazole-4-Sulfonamide]	400 to 1000	≤ 400	–
Cn1ncc2cccc(NS(=O)(=O)c3cnn(-c4cc(N5CCCC5=O)ccn4)c3)c21 [Compound I-284]	< 400	> 2500	–
COc1ncc2cnn(C)c2c1NS(=O)(=O)c1cnn(-c2cc(C(C)O)ccn2)c1 (single isomer, unassigned) [Compound I-293, 1-(4-(1-hydroxyethyl)pyridin-2-yl)-N-(6-methoxy-1-methyl-1H-pyrazolo[4,3-c]pyridin-7-yl)-1H-pyrazole-4-sulfonamide]	–	≤ 400	400 to 1000
CC(=O)N1CC(F)(c2ccnc(-n3cc(S(=O)(=O)Nc4cccc5cnn(C)c45)cn3)c2)C1 [Compound I-253, 1-(4-(1-acetyl-3-fluoroazetidin-3-yl)pyridin-2-yl)-N-(1-methyl-1H-indazol-7-yl)-1H-pyrazole-4-sulfonamide]	400 to 1000	> 2500	–
COc1ncc2cnn(C)c2c1NS(=O)(=O)c1cnn(-c2cc(N3CCC4(CC4)C3)ccn2)c1 [Compound I-424]	< 400	> 2500	–
Cn1ncc2cccc(NS(=O)(=O)c3cnn(-c4cc(N5CCOC5=O)ccn4)c3)c21 [Compound I-282, N-(1-methyl-1H-indazol-7-yl)-1-(4-(2-oxooxazolidin-3-yl)pyridin-2-yl)-1H-pyrazole-4-sulfonamide]	< 400	> 2500	–
